Measurements reported in patent US20240423980A1, “METHODS OF PREVENTING A VENOUS THROMBOEMBOLIC EVENT” (Board of Supervisors of Louisiana State University and …, priority 2023, published 2024).
One block for each compound: values may come before it.

Legend:
[1] = system: patients with mild-to-moderate COPD; settings: cited from earlier work
ITGA9-VCAM1 binding = biological target: T1, ITGA9-VCAM1 binding (Homo sapiens, UniProt Q13797); test: ITGA9 binding assay (ITGA9-VCAM1 binding, cell-free)
T1 construct: purchased R&D Systems
Procedure: Turning next to FIG. 2, another aspect of the invention is shown as a ITGA9 binding assay. Briefly, purified human VCAM1 (R&D Systems) diluted to 5 μg/ml in TBS+ buffer (25 mM Tris pH 7.4, 137 mM NaCl, 2.7 mM KCl, 1 mM CaCl2, 1 Mm MgCl2, 1 mM MnC12) was added to wells of a 96-well transparent microtiter plate and incubated overnight at 4° C. Wells were washed 3 times with buffer and blocking buffer (TBS+ with 1% bovine serum albumin) was added followed by incubation for 1 hour at 37° C., and then washing. Recombinant human integrin ITGA9 (R&D Systems) was diluted to 1 μg/ml in TBS+/0.1% bovine serum albumin. Macitentan was diluted into the integrin solution and added to the washed ligand-coated plate according to a standard template with each sample repeated in triplicate. After incubation for 2 hours at room temperature, the plate was washed 3 times with 150 μl TBS+ buffer. To each well, biotinylated anti-β1 (catalog BAF1778, R&D Systems) at 1 μg/ml in TBS+/0.1% BSA was added, and the plate covered and incubated for 1 hour at RT. After washing the plate 3 times with TBS+ buffer, streptavidin conjugated horseradish peroxidase (R&D Systems) diluted in TBS+ blocking buffer was added to the wells and the plate incubated for 20 minutes at room temperature. […] After incubation for 20 minutes at RT, plates were read by colorimetric detection at 450 nm wavelength. […]

mice with lung cancer = test: IVC stenosis DVT in mice with lung cancer (LLC1 cells); format: in vivo, mouse; settings: thrombus harvested 48-hour post-stenosis, FIG. 23
Procedure: Lewis lung carcinoma (LLC1) cell line will be obtained from American Type Culture Collection (ATCC). The cell line was originally derived from a Lewis lung carcinoma of a C57BL mouse strain. The cells will be grown in Dulbecco's Modified Eagle Medium (DMEM) supplemented with 10% FCS, 2 mM L-glutamine, 100 U/ml penicillin, 100 μg/ml streptomycin, and 0.1% fungizone. The cells will be maintained at 37° C. in a humidified atmosphere with 5% CO2. The LLC1 cells (100 μL) will be injected once intravenously.
Macitentan at the dose of 2, 5 and 10 mg/kg will be administered orally once a day from the day of cancer induction until the end of the study.
Deep vein thrombosis (DVT) will be induced in mice after 14 days of tumor induction. Briefly, anesthetized mice will undergo laparotomy, the intestine will be exteriorized, and the intra renal IVC will be exposed. The IVC will then be dissected away from the aorta. For stenosis, IVC will be exposed, a space holder (30-gauge, 3-mm long needle) will be positioned on the outside of the vessel, and a permanent narrowing ligature will be placed exactly below the left renal vein. Subsequently, the needle will be removed to restrict blood flow to 80-90%. […]
Thrombus size and thrombosis incidence on day 1 and day 2 following DVT surgery will be evaluated by ultrasonography. […]

wild-type mice = test: In vivo venous thrombosis using IVC stenosis (DVT surgery); set-up: species or system mouse; settings: 10 mg/kg; measured at 24-hr; vs vehicle; FIG. 3
Procedure: Next, we performed in vivo venous thrombosis using IVC stenosis (DVT surgery) in 30 wild-type mice and randomized them into control (vehicle, n=15) and treatment (Macitentan, 10 mg/kg, n=15) groups. The thrombus weight and incidence were measured at 24-hr.

Src = Src (Mus musculus, UniProt P05480); settings: in vivo dose of 1.5 mg/kg; cited from earlier work
[2] = system: Src family of protein tyrosine kinases; settings: cited from earlier work

T1 sequence (Q13797 30-981 limits assumed): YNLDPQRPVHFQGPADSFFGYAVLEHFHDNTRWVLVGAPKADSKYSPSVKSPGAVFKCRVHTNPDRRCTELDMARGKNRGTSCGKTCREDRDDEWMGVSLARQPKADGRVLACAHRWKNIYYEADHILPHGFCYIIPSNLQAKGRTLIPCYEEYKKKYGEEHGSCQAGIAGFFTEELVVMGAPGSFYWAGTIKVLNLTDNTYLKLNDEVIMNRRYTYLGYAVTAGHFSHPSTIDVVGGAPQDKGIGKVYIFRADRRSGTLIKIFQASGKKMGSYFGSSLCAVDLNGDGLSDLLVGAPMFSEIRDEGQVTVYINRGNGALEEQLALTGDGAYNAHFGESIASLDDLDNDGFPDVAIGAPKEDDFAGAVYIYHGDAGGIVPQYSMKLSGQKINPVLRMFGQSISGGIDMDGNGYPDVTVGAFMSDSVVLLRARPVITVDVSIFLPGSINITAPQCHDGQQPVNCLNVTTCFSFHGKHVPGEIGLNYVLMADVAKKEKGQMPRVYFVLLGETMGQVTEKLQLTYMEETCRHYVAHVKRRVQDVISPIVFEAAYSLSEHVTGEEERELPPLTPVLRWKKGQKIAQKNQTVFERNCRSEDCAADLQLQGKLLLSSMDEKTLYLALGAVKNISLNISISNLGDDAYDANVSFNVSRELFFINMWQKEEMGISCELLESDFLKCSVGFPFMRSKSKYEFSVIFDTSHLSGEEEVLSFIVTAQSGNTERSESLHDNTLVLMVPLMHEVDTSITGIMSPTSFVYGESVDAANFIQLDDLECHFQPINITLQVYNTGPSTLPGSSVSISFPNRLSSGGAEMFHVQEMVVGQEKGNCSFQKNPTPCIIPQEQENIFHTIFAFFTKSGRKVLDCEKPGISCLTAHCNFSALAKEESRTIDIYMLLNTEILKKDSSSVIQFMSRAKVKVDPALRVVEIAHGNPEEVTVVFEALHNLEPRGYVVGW
T1 sequence (P05556 21-728 partner limits assumed): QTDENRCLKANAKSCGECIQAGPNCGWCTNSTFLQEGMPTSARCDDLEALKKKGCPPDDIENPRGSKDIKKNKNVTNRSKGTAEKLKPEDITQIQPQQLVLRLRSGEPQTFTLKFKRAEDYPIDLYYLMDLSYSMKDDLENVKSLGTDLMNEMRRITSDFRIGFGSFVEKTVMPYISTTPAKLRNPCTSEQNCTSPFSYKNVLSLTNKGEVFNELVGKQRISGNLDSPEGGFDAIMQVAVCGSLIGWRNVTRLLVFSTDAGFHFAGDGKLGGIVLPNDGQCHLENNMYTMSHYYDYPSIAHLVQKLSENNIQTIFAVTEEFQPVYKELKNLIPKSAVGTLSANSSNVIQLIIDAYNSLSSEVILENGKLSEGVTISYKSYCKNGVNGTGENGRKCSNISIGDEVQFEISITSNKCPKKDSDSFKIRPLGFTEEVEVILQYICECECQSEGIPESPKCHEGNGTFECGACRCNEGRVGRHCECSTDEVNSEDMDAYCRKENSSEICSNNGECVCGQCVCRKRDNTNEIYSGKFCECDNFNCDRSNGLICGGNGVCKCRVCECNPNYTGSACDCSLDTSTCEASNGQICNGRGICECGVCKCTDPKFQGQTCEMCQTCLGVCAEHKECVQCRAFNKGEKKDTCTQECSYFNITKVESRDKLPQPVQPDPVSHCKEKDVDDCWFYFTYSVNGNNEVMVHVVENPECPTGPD
Sequence of Src (P05480 whole entry): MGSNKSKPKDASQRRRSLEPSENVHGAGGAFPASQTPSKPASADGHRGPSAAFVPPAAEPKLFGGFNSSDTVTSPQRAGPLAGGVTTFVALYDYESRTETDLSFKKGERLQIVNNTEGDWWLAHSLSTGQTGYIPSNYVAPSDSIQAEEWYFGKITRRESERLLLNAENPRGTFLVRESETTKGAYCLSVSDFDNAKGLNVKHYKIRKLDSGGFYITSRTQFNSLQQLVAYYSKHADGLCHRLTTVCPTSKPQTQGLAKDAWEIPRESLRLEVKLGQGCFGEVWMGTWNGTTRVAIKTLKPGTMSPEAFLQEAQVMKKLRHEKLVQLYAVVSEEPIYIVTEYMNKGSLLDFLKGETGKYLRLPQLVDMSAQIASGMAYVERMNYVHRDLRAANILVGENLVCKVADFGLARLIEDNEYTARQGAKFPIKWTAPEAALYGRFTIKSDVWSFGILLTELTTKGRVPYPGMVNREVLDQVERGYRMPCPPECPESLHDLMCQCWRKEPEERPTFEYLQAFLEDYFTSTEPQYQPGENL

SMILES: Cc1c(F)cccc1NC(=O)Nc1ccc(Cl)c(S(=O)(=O)[C@H]2CCCNC2)c1O [Danirixin]
number of pneumonias ([1]; danirixin 50 mg): increased number of pneumonias | incidence of exacerbation ([1]; danirixin-treated groups, COPD patients): increased incidence of exacerbation

binds to integrin α9 and inhibits its interactions with VCAM-1 (ITGA9-VCAM1 binding): inhibits its interactions with VCAM-1 | inhibition of ITGA9-VCAM1 binding (ITGA9-VCAM1 binding; Macitentan at 1 μM, FIG. 2): significantly inhibited
SMILES: CCCNS(=O)(=O)Nc1ncnc(OCCOc2ncc(Br)cn2)c1-c1ccc(Br)cc1 [Macitentan]
DVT severity (IVC thrombus weight) (mice with lung cancer): significantly reduced | thrombosis incidence (wild-type mice): significantly reduced | thrombus weight (wild-type mice): significantly reduced

SMILES: Cc1ccc(-c2nn(C(C)(C)C)c3ncnc(N)c23)cc1 [PP1]
inhibition of Src in vivo (Src): significant inhibition | IC50 [2]: 170 nM
